Tests used:
Type in all cases: functional
[1] = tested on: Saccharomyces cerevisiae; assay: Antimicrobial activity against Saccharomyces cerevisiae CBS 1394 assessed as relative growth at 50 ug/mL after 24 to 48 hrs relative to control
[2] = tested on: Saccharomyces cerevisiae; assay: Antimicrobial activity against Saccharomyces cerevisiae CBS 1394 assessed as relative growth at 100 ug/mL after 24 to 48 hrs relative to control
[3] = tested on: Rhodotorula glutinis; assay: Antimicrobial activity against Rhodotorula glutinis ATCC 201718 assessed as relative growth at 50 ug/mL after 24 to 48 hrs relative to control
[4] = tested on: Rhodotorula glutinis; assay: Antimicrobial activity against Rhodotorula glutinis ATCC 201718 assessed as relative growth at 100 ug/mL after 24 to 48 hrs relative to control

Compound	Activity [1]	Activity [2]	Activity [3]	Activity [4]
OCc1ccc2c(c1)C=C/C(=C/Cl)CO2	89%	1%	5.5%	<1%
O=Cc1ccc2c(c1)C=C/C(=C/Cl)CO2	91%	87%	96%	65%
CC(=O)c1ccc2c(c1)C=C/C(=C/Cl)CO2	91%	84%	58%	40%

From ChEMBL document CHEMBL1148125, “Total synthesis and bioactivity of some naturally occurring pterulones” (2002)
